From patent US11059853B2, “Crystalline or amorphous form of steroid derivative FXR agonist, preparation method therefor and use thereof” (Chia Tai Tianqing Pharmaceutical Group Co., Ltd., priority 2017, dated 2021)

Key:
[1] = Pharmacokinetics in mice administrated with single compound; format: in vivo, mice (C57BL/6J); details: mouse, plasma, male C57BL/6J mice; for bioavailability: oral 10 mg/kg vs intravenous 2 mg/kg; for AUC / Cmax / Tmax: oral (intragastrical) 10 mg/kg
Procedure: 12 male mice (C57BL/6J) were randomly divided into two groups, i.e., 6 mice per group. […] Plasma (using K2-EDTA as anticoagulant) samples were taken at 0.083, 0.25, 0.5, 1, 2, 4, 6, 8 and 24 hours in the intravenous administration group after administration; and plasma samples were taken at 0.25, 0.5, 1, 2, 4, 6, 8 and 24 hours in the oral administration group after administration. For 6 animals in each group, blood samples were collected for 3 animals at one time point. The first batch of 3 animals was alternately sampled with the second batch of 3 animals. Plasma sample analysis was performed by using LC-MS/MS. The resultant plasma concentrations were plotted with respect to time, and PK parameters were calculated by using Phoenix WinNonlin 6.3.

[2] = target: T1, Glutathione-S-transferase-labeled FXR human protein (Homo sapiens, UniProt Q96RI1); assay: FXR biochemical experiment (AlphaScreen, coactivator recruitment)
T1 sequence (Q96RI1 1-486): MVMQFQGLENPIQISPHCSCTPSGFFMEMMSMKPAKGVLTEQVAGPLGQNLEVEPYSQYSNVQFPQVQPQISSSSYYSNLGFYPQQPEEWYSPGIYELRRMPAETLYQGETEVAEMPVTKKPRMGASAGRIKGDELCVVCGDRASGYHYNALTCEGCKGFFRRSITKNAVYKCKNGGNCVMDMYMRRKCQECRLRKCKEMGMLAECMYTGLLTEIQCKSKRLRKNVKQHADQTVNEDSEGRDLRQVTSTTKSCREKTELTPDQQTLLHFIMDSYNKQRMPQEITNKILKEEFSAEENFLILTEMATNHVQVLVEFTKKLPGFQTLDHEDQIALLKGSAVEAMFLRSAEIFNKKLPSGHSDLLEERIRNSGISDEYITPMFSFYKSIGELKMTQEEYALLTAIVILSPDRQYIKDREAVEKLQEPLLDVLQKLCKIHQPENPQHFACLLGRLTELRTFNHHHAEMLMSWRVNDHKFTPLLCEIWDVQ
Procedure: The activation effect of the compound on FXR binding reaction was detected by AlphaScreen. […] Protein: Glutathione-S-transferase-labeled FXR human protein (Invitrogen) 2. Co-activator: Biotin-labeled steroid receptor coactivator (Anaspec) 3. […] Compound Dilution: The compound to be tested was prepared as a 40 μM DMSO solution, and then diluted 3-fold to 10 concentration points. The reference compound was prepared as a 400 μM DMSO solution, and then diluted 1.5-fold to 10 concentration points. The diluted DMSO solution was added to the wells of a 384-well plate in a volume of 150 nL per well. 2. […] 4. […] The operation during the experimental process was protected from light. The incubation was performed for 1 hour at room temperature. 5. […] The operation during the experimental process was protected from light. The incubation was performed for 1 hour at room temperature. 6. EC50 test: Envision was used with excitation at 680 nm to read the absorbance signals at 520-620 nm. 7. Analytical data: The data were analyzed via using Prism 5.0, and the EC50 values of the activation effects of the compound were calculated.

[3] = target: T2, FXR (FXR HEK 293T DA cells) (Homo sapiens, UniProt Q96RI1); assay: FXR cell experiment (β-lactamase reporter gene); format: cell-based
T2 sequence (Q96RI1 262-486 limits assumed): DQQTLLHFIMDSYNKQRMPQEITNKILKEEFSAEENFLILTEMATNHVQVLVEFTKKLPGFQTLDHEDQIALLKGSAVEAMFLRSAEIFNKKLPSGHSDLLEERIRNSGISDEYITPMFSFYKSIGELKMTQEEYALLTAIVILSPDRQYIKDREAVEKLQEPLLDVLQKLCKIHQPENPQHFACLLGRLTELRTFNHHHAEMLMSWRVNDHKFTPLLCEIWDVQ
Procedure: 2. Cell culture medium: DMEM medium supplemented with 10% serum and Penicillin/Streptomycin (1×)
3. Detection reagent: GeneBLAzer® Reporter Gene Detection Kit (Invitrogen)
1. Compound Dilution: The compound to be tested was prepared as a 100 μM DMSO solution, and then the compound was diluted 3-fold to 10 concentration points. The reference compound was prepared as a 100 μM DMSO solution, and then diluted 1.3-fold to 10 concentration points. The diluted DMSO solution was added to the wells of a 384-well plate in a volume of 200 nL per well.
3. The 384-well plate was incubated at 37° C., 5% CO2 for 16 hours.
4. 6 μL of 1 mM LiveBLAzer™-FRET 13/G (CCF4-AM) substrate was mixed with 60 μL of B solution and 934 μL of C solution, and added to the wells of the 384-well plate in a volume of 8 μL per well.
5. The 384-well plate was incubated in dark for 2 hours at room temperature.
7. Analytical data: The data was analyzed via using Prism 5.0, and the EC50 values of the activation effects of the compound were calculated.

[4] = Solid-state stability test (XRPD detection); format: physicochemical; details: room temperature/75% RH, 40° C./75% RH, 60° C./75% RH (all open); for Solid-state stability: crystalline form by XRPD compared with Day 0: room temperature/92.5% RH, Day 5 and Day 10
Procedure: In the present application, the X-ray powder diffraction patterns are measured by the following method: instrument: Bruker D8 ADVANCE X-ray diffractometer; method: target: Cu: K-Alpha; wavelength: λ=1.54179 Å; tube voltage: 40 kV; divergence slit: 0.60 mm; detector slit: 10.50 mm; antiscattering slit: 7.10 mm; tube current: 40 mA; scan range: 4° to 40°; scanning speed: 0.12 sec/step, 0.02°/step; sample tray rotation speed: 15 rpm.
The solid-state stability of crystalline Form A was examined under the following conditions: 1) 40° C. (open), 2) 60° C. (open), 3) room temperature/92.5% RH (open), 4) room temperature/75% RH (open), 5) 40° C./75% RH (open), and 6) 60° C./75% RH (open), wherein the room temperature was selected from 20° C. to 30° C.
(§1) Several samples of crystalline Form A in a suitable amount were taken, and placed on the bottom of the glass specimen bottles and spread into a thin layer. The bottles with the samples to be placed under the abovementioned conditions were capped with aluminum-foil paper which has been punched with several small holes, which ensures that the samples could be in full contact with the ambient air.
The solid-state stability of crystalline Form B was examined under the following conditions: 1) room temperature/92.5% RH (open), 2) room temperature/75% RH (open), 3) 40° C./75% RH (open), and 4) 60° C./75% RH (open), which the room temperature was selected from 20° C. to 30° C.
as §1, with “B” for “A”
The solid-state stability for the solid amorphous form of the compound of formula I was examined under the following conditions: 1) room temperature/75% RH (open), 2) 40° C./75% RH (open), 3) 60° C./75% RH (open), wherein the room temperature was selected from 20° C. to 30° C. […]

[5] = Test for hygroscopicity, Dynamic Vapor Sorption (DVS); format: physicochemical; details: 25±1° C., 80±2% RH
Procedure: Dynamic Vapor Sorption (DVS) analysis was performed on crystalline Form A and the solid amorphous form of the compound of formula I by the following process and conditions: the samples (10 to 15 mg) were placed in the sample pan; instrument model: SMS DVS Advantage Dynamic Vapor Sorption; temperature: 25° C.; balance: dm/dt=0.01%/min (Min: 10 min, Max: 180 min); drying: for 120 min at 0% RH; RH (%) gradient for testing: 10%; the RH (%) range for gradient testing: 0%-90%-0%. The hygroscopicity was evaluated using the following scale: […]

| SMILES | bioavailability [1] [%] | AUC [1] [µM·h] | Cmax [1] [nM] | Tmax [1] [min] | hygroscopic weight gain [5] [%] | further results |
| --- | --- | --- | --- | --- | --- | --- |
| CC[C@H]1[C@@H](O)[C@@H]2[C@H](CC[C@]3(C)[C@@H]([C@H](C)CCC(=O)O)CC[C@@H]23)[C@@]2(C)CC[C@@H](O)C[C@@H]12 [Obeticholic acid, reference compound] | 13 | 0.993 | 1010 | 18 |  |  |
| CC[C@H]1[C@@H](O)[C@@H]2[C@H](CC[C@]3(C)[C@@H]([C@H](C)CCOc4ncc(C(=O)O)cc4Cl)CC[C@@H]23)[C@@]2(C)CC[C@@H](O)C[C@@H]12 [The compound of formula I] | 20 | 1.11 | 1780 | 30 |  | EC50 ([2]; AlphaScreen, GST-FXR human protein with biotin-labeled steroid receptor coactivator, read-out: FXR enzyme activity EC50): 2.5 nM; FXR enzyme activity Efficacy ([2]; highest signal relative to the reference compound): 248%; EC50 ([3]; FXR HEK 293T DA cells, β-lactamase reporter gene, 16 hours, read-out: FXR cell viability EC50): 3 nM; FXR cell viability Efficacy ([3]; highest signal relative to reference compound CDCA): 150% |
| CC[C@H]1[C@@H](O)[C@@H]2[C@H](CC[C@]3(C)[C@@H]([C@H](C)CCOc4ncc(C(=O)O)cc4Cl)CC[C@@H]23)[C@@]2(C)CC[C@@H](O)C[C@@H]12 [crystalline Form A] |  |  |  |  | 0.835 | Solid-state stability: crystalline form by XRPD compared with Day 0 ([4]; 40° C., 60° C.): remained unchanged |
| CC[C@H]1[C@@H](O)[C@@H]2[C@H](CC[C@]3(C)[C@@H]([C@H](C)CCOc4ncc(C(=O)O)cc4Cl)CC[C@@H]23)[C@@]2(C)CC[C@@H](O)C[C@@H]12 [crystalline Form B] |  |  |  |  |  | Solid-state stability: crystalline form by XRPD compared with Day 0 [4]: remained unchanged |
| CC[C@H]1[C@@H](O)[C@@H]2[C@H](CC[C@]3(C)[C@@H]([C@H](C)CCOc4ncc(C(=O)O)cc4Cl)CC[C@@H]23)[C@@]2(C)CC[C@@H](O)C[C@@H]12 [solid amorphous form of the compound of formula I] |  |  |  |  | 1.775 | Solid-state stability: XRPD compared with Day 0 ([4]; Day 10 and one month): remained unchanged |
